Activity calls are given as the source filed them.

Data set [1] can be described thus: Cmax in castrated cynomolgus monkey at 10 mg/kg, po by mass spectrometry. The format is ADME, organism-based, Macaca fascicularis. Further details: dose 10 mg/kg, route oral. As to conditions: male, in vivo.
A short description of data set [2]: AUC (infinity) in beagle dog at 10 mg/kg, po by mass spectrometry. The format is ADME, organism-based, Canis lupus familiaris. Further details: dose 10 mg/kg, time infinity, route oral. As to conditions: in vivo.
Data set [3] can be described thus: Tmax in Sprague-Dawley rat at 10 mg/kg, po by mass spectrometry. Format: ADME, organism-based. To be noted: in vivo.
Data set [4] in a line: Half life in beagle dog at 10 mg/kg, po by mass spectrometry. The format is ADME, organism-based, Canis lupus familiaris. As to conditions: in vivo.
The nature of data set [5]: AUC (infinity) in castrated cynomolgus monkey at 10 mg/kg, po by mass spectrometry. More on the design: dose 10 mg/kg, route oral, time infinity. The format is ADME, organism-based, Macaca fascicularis. To be noted: male, in vivo.
The test system of data set [6] is Cynomolgus monkey. In words: Reduction in serum LH level in castrated male cynomolgus monkey at 30 mg/kg, po administered as single dose after 24 hrs by RIA method. The format is functional. To be noted: Macaca fascicularis.
The nature of data set [7]: Tmax in beagle dog at 10 mg/kg, po by mass spectrometry. Format: ADME, organism-based, Canis lupus familiaris. To be noted: in vivo.
Data set [8] in a line: Cmax in beagle dog at 10 mg/kg, po by mass spectrometry. The format is ADME, organism-based, Canis lupus familiaris. To be noted: in vivo. Further details: dose 10 mg/kg, route oral.
A short description of data set [9]: Cmax in Sprague-Dawley rat at 10 mg/kg, po by mass spectrometry. More on the design: dose 10 mg/kg, route oral. The format is ADME, organism-based. To be noted: in vivo.
A short description of data set [10]: Oral bioavailability in beagle dog at 10 mg/kg by mass spectrometry. To be noted: in vivo. Format: ADME, organism-based, Canis lupus familiaris.
Data set [11] can be described thus: Cmax in castrated male cynomolgus monkey at 30 mg/kg, po administered as single dose. The format is ADME, organism-based, Macaca fascicularis. To be noted: in vivo. More on the design: dose 30 mg/kg, route oral.
Data set [12] is described as follows: Oral bioavailability in castrated cynomolgus monkey at 10 mg/kg by mass spectrometry. To be noted: male, in vivo. Format: ADME, organism-based, Macaca fascicularis.
The nature of data set [13]: AUC in castrated male cynomolgus monkey at 30 mg/kg, po administered as single dose. Format: ADME, organism-based, Macaca fascicularis. As to conditions: in vivo.
Data set [14] can be described thus: Half life in Sprague-Dawley rat at 10 mg/kg, po by mass spectrometry. The format is ADME, organism-based. As to conditions: in vivo.
For data set [15], the system named is Cynomolgus monkey. Nature of the data set: Reduction in serum LH level in castrated male cynomolgus monkey at 30 mg/kg, po administered as single dose after 12 hrs by RIA method. Format: functional. To be noted: Macaca fascicularis.
Data set [16] can be described thus: Half life in castrated cynomolgus monkey at 10 mg/kg, po by mass spectrometry. Format: ADME, organism-based, Macaca fascicularis. As to conditions: male, in vivo.
Data set [17] can be described thus: Tmax in castrated cynomolgus monkey at 10 mg/kg, po by mass spectrometry. As to conditions: male, in vivo. The format is ADME, organism-based, Macaca fascicularis.
Data set [18] is described as follows: Oral bioavailability in Sprague-Dawley rat at 10 mg/kg by mass spectrometry. Format: ADME, organism-based. To be noted: in vivo.
Data set [19] can be described thus: AUC (infinity) in Sprague-Dawley rat at 10 mg/kg, po by mass spectrometry. The format is ADME, organism-based. More on the design: dose 10 mg/kg, route oral, time infinity. To be noted: in vivo.
In data set [20] the target is T1, Gonadotropin-releasing hormone receptor (Homo sapiens, UniProt P30968).
T1 sequence (P30968 whole entry): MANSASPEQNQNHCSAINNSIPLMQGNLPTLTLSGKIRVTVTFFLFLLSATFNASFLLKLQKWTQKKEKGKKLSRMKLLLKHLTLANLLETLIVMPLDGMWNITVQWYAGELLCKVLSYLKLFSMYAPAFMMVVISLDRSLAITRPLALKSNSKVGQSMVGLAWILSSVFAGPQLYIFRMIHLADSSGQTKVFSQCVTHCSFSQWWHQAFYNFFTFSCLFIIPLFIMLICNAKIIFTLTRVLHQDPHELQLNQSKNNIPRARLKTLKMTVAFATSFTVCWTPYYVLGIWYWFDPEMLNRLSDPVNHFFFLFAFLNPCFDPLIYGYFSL
Nature of the data set: Antagonist activity against human GnRH receptor expressed in […] assessed as inhibition of LHRH-induced calcium flux by FLIPR assay. The format is functional, cell-based. Background: A change in cytosolic calcium serves as a functional read-out for many receptors and channels.

Data set [21] concerns the target T1, Gonadotropin-releasing hormone receptor. In words: Antagonist activity against human GnRH receptor expressed in HEK293 cells co-transfected with pGL4-NFAT promoter AP1-luc assessed as inhibition of 20 nM GnRH-induced NFAT activation pre-incubated for 1 hr before GnRH stimulation and measured after 6 hrs by luciferase reporter gene assay. Format: cell-based.

The target in data set [22] is T2, Gonadotropin-releasing hormone receptor (Macaca mulatta, UniProt Q8SPZ1).
T2 sequence (Q8SPZ1 whole entry): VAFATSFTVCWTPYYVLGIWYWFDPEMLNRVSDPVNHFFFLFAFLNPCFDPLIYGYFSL
In words: Displacement of [125I]D-Trp6-LHRH from monkey GnRH receptor expressed in HEK293 cell membranes incubated for 1 hr by competitive binding assay. In general terms: Loss of bound radioactivity is the signal in a displacement assay; it reports binding, not function.

The target of data set [23] is T1, Gonadotropin-releasing hormone receptor. Nature of the data set: Antagonist activity against human GnRH receptor expressed in HEK293 cells co-transfected with pGL4-NFAT promoter AP1-luc assessed as inhibition of 1 nM GnRH-induced NFAT activation pre-incubated for 1 hr before GnRH stimulation and measured after 6 hrs by luciferase reporter gene assay. Format: cell-based.

Data set [24] shares this target. Nature of the data set: Displacement of [125I]D-Trp6-LHRH from human GnRH receptor expressed in CHO-K1 cell membranes incubated for 1 hr by competitive binding assay.
In data set [25] the target is T2, Gonadotropin-releasing hormone receptor. In words: Antagonist activity against monkey GnRH receptor expressed in HEK293 cells co-transfected with pGL4-NFAT promoter AP1-luc assessed as inhibition of 10 nM GnRH-induced NFAT activation pre-incubated for 1 hr before GnRH stimulation and measured after 6 hrs by luciferase reporter gene assay. Format: cell-based.
The target in data set [26] is T3, Gonadotropin-releasing hormone receptor (Rattus norvegicus, UniProt P30969).
T3 sequence (P30969 whole entry): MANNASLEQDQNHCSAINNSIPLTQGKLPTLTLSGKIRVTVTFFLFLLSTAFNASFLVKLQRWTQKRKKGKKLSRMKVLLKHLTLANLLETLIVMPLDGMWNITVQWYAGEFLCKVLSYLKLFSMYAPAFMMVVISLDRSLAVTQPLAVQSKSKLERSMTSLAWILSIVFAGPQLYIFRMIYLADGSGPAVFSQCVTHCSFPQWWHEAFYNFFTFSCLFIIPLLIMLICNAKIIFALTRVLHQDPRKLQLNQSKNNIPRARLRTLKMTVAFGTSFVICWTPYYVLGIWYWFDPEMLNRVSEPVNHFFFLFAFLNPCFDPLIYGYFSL
Nature of the data set: Displacement of [125I]D-Trp6-LHRH from rat GnRH receptor expressed in HEK293 cell membranes incubated for 1 hr by competitive binding assay.

Data set [27] has as its target T1, Gonadotropin-releasing hormone receptor. In words: Antagonist activity against human GnRH receptor expressed in HEK293 cells assessed as reduction in ERK1/2 phosphorylation pre-incubated for 5 mins before LHRH stimulation for 5 mins by chemiluminescence based assay. The format is cell-based.
The target in data set [28] is T3, Gonadotropin-releasing hormone receptor. In words: Antagonist activity against rat GnRH receptor expressed in HEK293 cells co-transfected with pGL4-NFAT promoter AP1-luc assessed as inhibition of 1 nM GnRH-induced NFAT activation pre-incubated for 1 hr before GnRH stimulation and measured after 6 hrs by luciferase reporter gene assay. The format is cell-based. A general note: Reporter assays use an easily measured gene product as a stand-in for the process of interest.

The target of the next data set is CYP3A4 (Homo sapiens, UniProt P08684). Nature of the data set: Inhibition of human recombinant CYP3A4 expressed in baculosomes at 10 uM incubated for 30 mins using BOMR substrate by fluorescence based assay. The format is ADME. To be noted: probe BOMR.
CYP3A4, sequence (P08684 whole entry): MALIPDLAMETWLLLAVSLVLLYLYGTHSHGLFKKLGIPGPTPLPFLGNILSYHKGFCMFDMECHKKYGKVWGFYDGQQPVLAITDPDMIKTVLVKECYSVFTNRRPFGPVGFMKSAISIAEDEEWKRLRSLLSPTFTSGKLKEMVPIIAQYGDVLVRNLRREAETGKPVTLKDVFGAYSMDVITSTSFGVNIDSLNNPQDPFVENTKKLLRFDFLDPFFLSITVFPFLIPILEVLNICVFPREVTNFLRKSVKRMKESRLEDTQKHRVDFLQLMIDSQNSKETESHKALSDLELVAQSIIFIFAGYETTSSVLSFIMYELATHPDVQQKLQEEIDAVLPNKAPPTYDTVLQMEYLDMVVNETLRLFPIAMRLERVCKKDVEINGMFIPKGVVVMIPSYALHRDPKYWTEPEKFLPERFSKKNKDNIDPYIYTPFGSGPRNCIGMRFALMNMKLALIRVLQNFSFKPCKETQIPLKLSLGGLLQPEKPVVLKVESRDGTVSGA
Data set [29] is described as follows: Selectivity index, ratio of IC50 for antagonist activity against rat GnRH receptor expressed in HEK293 cells to IC50 for antagonist activity against human GnRH receptor expressed in HEK293 cells. Format: cell-based.
Data set [30] is described as follows: Selectivity index, ratio of IC50 for antagonist activity against monkey GnRH receptor expressed in HEK293 cells to IC50 for antagonist activity against human GnRH receptor expressed in HEK293 cells. Format: cell-based.
For data set [31], the system named is Cynomolgus monkey. In words: Reduction in serum LH level in castrated male cynomolgus monkey at 30 mg/kg, po administered as single dose after 12 to 24 hrs by RIA method. The format is functional, organism-based. To be noted: Macaca fascicularis.

`Cc1c(N2CCN(Cc3ccc(C(F)(F)F)o3)CC2)c(=O)n(C[C@H](NCCCC(=O)O)c2ccccc2)c(=O)n1Cc1c(F)cccc1C(F)(F)F.Cl`: the Cmax (usually the peak of the concentration-time curve) in [1] came to 300 ng/mL; in [8] it was 2700 ng/mL; in data set [9], 500 ng/mL; in [11], 5500 ng/mL. For the same molecule, the area under the curve AUC(0-inf) (as a rule, the area under the concentration-time curve extrapolated to infinity) stood at 9600 ng·h/mL in data set [2], 1300 ng·h/mL in data set [5] and 1500 ng·h/mL in data set [19]. Further, the time of peak concentration (Tmax) (as a rule, the time at which the peak concentration occurs) in data set [3] worked out at 1.6 h; in data set [7], 1.3 h; in data set [17], 1.7 h. The half-life (commonly the time needed for the level to fall by half in the phase considered) in [4] is 1.7 h; in [14], 1.9 h; in data set [16], 3.5 h. The inhibition in vivo (in general, the share of the control response that was lost under treatment) at 30 mg/kg was 76% in the data set with Cynomolgus monkey [6] and 84% with Cynomolgus monkey [15]. For the same molecule, the bioavailability – broadly, the share of a dose that reaches the circulation, judged against a reference dose that is usually intravenous – was found to be 52.6% in data set [10], 13.2% in data set [12] and 15.6% in data set [18]. Also, in [13], the AUC (commonly the area under the concentration-time curve, a measure of exposure) turned out to be 37000 ng·h/mL.
With `Cc1c(N2CCN(Cc3ccc(C(F)(F)F)o3)CC2)c(=O)n(C[C@H](NCCCC(=O)O)c2ccccc2)c(=O)n1Cc1c(F)cccc1C(F)(F)F` [listing 1 of 2 here], the IC50 (in general, the concentration at which inhibition is half-maximal) was 0.76 nM in [20]; 13 nM in data set [21]; 3.7 nM in data set [22]; 6.32 nM in data set [23]; 0.44 to 0.46 nM in data set [24]; 13.2 nM in data set [25]. Also, the IC50 turned out to be 520 nM in data set [26], 2.9 nM in [27] and 279 nM in data set [28]. Besides, the inhibition (as a rule, how much of the control response was suppressed) at 0.5 h, 10 µM at CYP3A4 came out at 21%.
`Cc1c(N2CCN(Cc3ccc(C(F)(F)F)o3)CC2)c(=O)n(C[C@H](NCCCC(=O)O)c2ccccc2)c(=O)n1Cc1c(F)cccc1C(F)(F)F` [listing 2 of 2 here]: the figures for the Ratio IC50 in [29] and in data set [30] were 44 and 2, respectively. Moreover, the inhibition result in the data set with Cynomolgus monkey [31] was “Active”.
`Cc1c(N2CCN(Cc3cccc(C(=O)NCCC(=O)O)c3)CC2)c(=O)n(C[C@H](N)c2ccccc2)c(=O)n1Cc1c(F)cccc1C(F)(F)F`: the IC50 was 146 nM in data set [21] and 1.2 nM in data set [24]. For the same molecule, the inhibition at 0.5 h, 10 µM at CYP3A4 stood at 72%.

These data come from ChEMBL document CHEMBL4428102, “Discovery of an Orally Bioavailable Gonadotropin-Releasing Hormone Receptor Antagonist” (J Med Chem, 2016).
